Measured values published in ChEMBL document CHEMBL1201862, “PubChem BioAssay data set” (2004).
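Five compound concentrations were applied to cells in 96-well plates for 48 hours; endpoints were derived by simple linear interpolation of the resulting dose-response curve. Here, GI50 denotes the concentration required for 50% inhibition of growth.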 The source made the active and inactive calls. No stated cut-off is given here; in the data, active = GI50 up to about 1.1 µM and inactive = higher.

What was measured:
Experiment in all cases: NCI tumour cell line growth inhibition, 48 h
[1] = tested on: SNB-78
[2] = tested on: LXFL 529
[3] = tested on: DMS-273
[4] = tested on: RXF 631
[5] = tested on: KM-20L2
[6] = tested on: HOP-18
[7] = tested on: Hs-578T
[8] = tested on: T47D
[9] = tested on: MDA-N

Measured: GI50

Nc1ccc(C(=O)/C=C/c2ccccc2O)cc1
inactive: [1] > 100 µM | [2] > 100 µM | [3] > 10 µM | [4] > 100 µM | [5] > 100 µM

C=C(C(=C)N1N=NC2C3CCC(C3)C21)N1N=NC2C3CCC(C3)C21 (centres undefined)
inactive: [1] > 100 µM | [2] > 100 µM | [3] > 100 µM | [4] > 100 µM | [6] > 100 µM

CNS(=O)(=O)NN(C)S(=O)(=O)c1ccc2ccccc2c1
inactive: [2] > 100 µM | [3] > 100 µM | [4] > 100 µM | [5] > 100 µM

Cc1ccc(S(=O)(=O)c2ccccc2[N+](=O)[O-])cc1
inactive: [1] > 100 µM | [2] > 100 µM | [3] > 100 µM | [4] 49.1 µM | [5] > 100 µM

COc1ccccc1C(=O)N(Cc1ccccc1)c1ccc(Cl)c(C(=O)OC(C)C)c1
inactive: [7] 61.1 µM | [1] 19.1 µM | [2] 23 µM | [8] 5.52 µM | [3] 5.98 µM | [4] 17 µM | [6] 14 µM | [5] 30.3 µM | [9] 38.2 µM

CCOC(=O)NC(=O)c1cn(C2OC(CO)C(O)C2O)c(=O)[nH]c1=O (centres undefined)
inactive: [2] > 100 µM | [3] > 100 µM | [4] > 100 µM | [5] > 100 µM

CCOC(=O)c1cn2c([nH]c3ccccc32)c(C#N)c1=O
inactive: [1] > 100 µM | [2] > 100 µM | [3] > 100 µM | [4] > 100 µM | [6] > 100 µM | [5] > 100 µM

COC1=C(N=[N+]=[N-])C(=O)c2ncccc2C1=O
inactive: [7] 18.5 µM | [1] 5.7 µM | [2] 1.72 µM | [8] 2.13 µM | [3] 12.9 µM | [4] 16.3 µM | [5] 18.5 µM | [9] 1.95 µM

O=C(O)c1ccc(O)c(/N=N/c2cc(S(=O)(=O)O)c3ccccc3c2O)c1
inactive: [1] > 100 µM | [3] > 100 µM | [4] > 100 µM | [5] > 100 µM

Fc1ccc2c(c1)SC1Oc3ccccc3-c3c1c-2nn3-c1ccccc1 (centres undefined)
inactive: [1] > 100 µM | [2] > 100 µM | [3] > 100 µM | [4] 7.69 µM | [6] 27 µM | [5] > 100 µM

COc1ccc(CN2CC(C)(C)C2=O)c(OC)c1
inactive: [1] > 100 µM | [3] > 100 µM | [4] > 100 µM | [6] > 100 µM | [5] > 100 µM

C/C(CC(=O)Nc1ccc(C)c(C)c1)=N\NC(N)=S
inactive: [1] > 100 µM | [2] > 100 µM | [3] > 100 µM | [4] > 100 µM | [5] > 100 µM

O=C1C2Nc3ccccc3SC2C(=O)N1c1cccc([N+](=O)[O-])c1 (centres undefined)
inactive: [1] > 100 µM | [2] 74.3 µM | [3] 1.46 µM | [4] > 100 µM | [5] > 20.5 µM

O=C1OC(O)C(Oc2ccc(Cl)cc2)=C1Cl (centres undefined)
inactive: [1] > 100 µM | [2] > 100 µM | [3] > 100 µM | [4] > 100 µM | [5] > 100 µM

COc1ccc2cc3nc(O)cc(O)c3cc2c1OC
inactive: [1] > 100 µM | [2] > 100 µM | [4] > 100 µM | [6] > 100 µM | [5] > 100 µM

Nc1ncnc2c1N=CN(Oc1ccccc1)N2
inactive: [1] > 100 µM | [2] > 100 µM | [3] > 100 µM | [4] > 100 µM | [5] > 100 µM

O=S(=O)(O)c1cc(/N=N/c2cc(S(=O)(=O)O)c3ccccc3c2O)ccc1/C=C/c1ccc(/N=N/c2cc(S(=O)(=O)O)c3ccccc3c2O)cc1S(=O)(=O)O
inactive: [7] 499 µM | [1] > 100 µM | [2] > 1000 µM | [8] 497 µM | [3] > 83 µM | [6] > 100 µM | [5] > 100 µM | [9] 151 µM

[O-][n+]1c(-c2ccccc2)c2nc3ccccc3nc2c2ccccc21
inactive: [1] 27.5 µM | [2] 7.78 µM | [3] > 100 µM | [4] > 100 µM | [5] > 100 µM

O=C(CC1(O)C(=O)Nc2ccc(Br)cc21)c1ccc(Cl)cc1Cl (centres undefined)
inactive: [1] 37.8 µM | [2] 32.4 µM | [4] 43.9 µM | [5] > 100 µM

COC1OC(COC(C)=O)C(OC(C)=O)C(OC(C)=O)C1NC(=O)N(CCCl)N=O (centres undefined)
inactive: [1] > 100 µM | [2] > 100 µM | [3] > 100 µM | [4] > 100 µM | [6] > 100 µM | [5] > 100 µM

CCOc1ccc(NC(=O)CC2SC(Nc3ccc(C)cc3)=NC2=O)cc1 (centres undefined)
inactive: [1] > 100 µM | [2] > 100 µM | [3] > 100 µM | [4] > 100 µM | [5] > 100 µM
